Consider one compound from patent publication US9724337B2, “AG-205 for the treatment of breast cancer” (University of Kentucky Research Foundation, priority 2009, dated 2017).

One experiment has as its system NIH-3T3 cells. Description: Growth inhibition of NIH-3T3 cells. In kind it is cell-based. The settings on record: wild-type EGFR.
For experiment [1], the target named is T1, Pgrmc1 (Homo sapiens, UniProt O00264). Briefly: Western blot of Pgrmc1 in A549 cells. In kind it is cell-based. Set-up: endogenous in cells; host or cells: A549 cells. The settings on record: A549 cells, 2, 10 or 50 μM for 24 hours. The protocol:
(A) Graph of triplicate FACS analysis. […] (B) Protein expression was analyzed by western blot for Pgrmc1 (top) and ku70 (bottom). Cells were treated with 0 (lanes 1), 2 (lanes 2), 10 (lanes 3) or 50 (lanes 4) μM AG-205 for 24 hours. […] (C-D) The panels show western blots of phosphorylated ERK1/2 (upper panels) and total ERK1/2 (lower panels) The lanes in panel C are A549/con (lane 1), A549/RNAi (lane 2), A549/LacZ (lane 3) and A549/PGR-hbd cells (lane 4) following 48 hours serum starvation. The cells infected with adenovirus were similar to those described in FIG. 3, panels C and D. In panel D, A549 cells were treated with vehicle (lane 1) or 20 μM AG-205 (lane 2) for 24 hours in serum-free media. (E) A549/con (solid line) or A549/RNAi (dashed line) cells were treated with increasing doses of AG-205 for 72 hours and viability was measured by counting, and “% viability” refers to the cell number relative to the untreated control. (F) Cells expressing LacZ (solid line) or the Pgrmc1-hbd heme binding-deficient mutant (dashed line), were treated with increasing doses of AG-205. […] Percent viability was determined by cell counting, and “% viability” refers to the cell number relative to the untreated control. For each experiment, the results are representative of experiments performed at least in duplicate.
(§1) Immunological techniques. […]

The test system of another experiment is ku70. Description: Western blot of ku70 in A549 cells. In kind it is cell-based, human. On the procedure:
(§2) Panel A is a diagram indicating the positions of the siRNA molecules targeting Pgrmc1. Exons 1, 2 and 3 are indicated by “ex”. MDA-MB-468 cells were transfected with a control siRNA (siCON, lanes 1 and 3) or two separate siRNAs targeting Pgrmc1 (siPGR and siPGR2, lanes 2 and 4, respectively). In panels B-E and H-L, protein levels were analyzed by western blot for EGFR (B), phospho-tyrosine (C), Pgrmc1 (D) and ku70 (E), as a control for protein loading. Panels F—H show western blot analyses for (F) IGF-1R, (G) c-Kit and (H) tfR. In panels I and J, transcript levels were analyzed by reverse transcriptase-PCR for EGFR (I) and Pgrmc1 (J). The top band indicates the gene of interest, while actin primers were included in the same reaction as a control for cDNA loading. […] In panels K-L, MDA-MB-468 cells were treated with increasing doses of the Pgrmc1 ligand AG-205. Protein expression was analyzed by western blot for EGFR (K) and ku70 (L). Cells were treated with 0 (lanes 1), 2 (lanes 2), 10 (lanes 3) or 50 (lanes 4) μM AG-205 for 24 hours in serum-free medium. In panels M-N, A549 cells were treated with the same doses and analyzed for EGFR (M) and ku70 (N). […] Expression analyses were repeated at least in duplicate throughout.
as §1

The target of experiment [2] is T1, Pgrmc1. Description: Western blot of Pgrmc1 levels in MDA-MB-468 cells. In kind it is cell-based. The protocol:
(§3) Immunological techniques. Cells were extracted in RIPA buffer (50 mM Tris, pH 8.0, 1% Nonidet P-40, 150 mM NaCl, 0.5% sodium deoxycholate, 0.1% sodium dodecyl sulfate, 1 mM phenylmethylsulfonyl fluoride, 10 μg/ml of aprotinin, leupeptin and pepstatin) for standard western blotting. The antibodies used in the study were anti-caveolin-1 (N-20, Santa Cruz Biologicals, # sc-894), anti-EGFR (1005, Santa Cruz, # sc-03), anti-ku70 (A-9, Santa Cruz # sc-5309), anti-Met (C-12, Santa Cruz # sc-10), anti-PARP (H-250, Santa Cruz # sc-7150), anti-phosphotyrosine (P-Tyr-100, Cell Signaling), anti-Pgrmc1 (Novus Biologics) and anti-tubulin (Neomarkers). Some western blots for Pgrmc1 were performed with a polyclonal antibody called anti-PGR-UK1 which was raised in rabbits to an internal 10 amino acid peptide.

Another experiment relates to SK-Br-3 cells. Description: Growth inhibition of SK-Br-3 cells. In kind it is cell-based. As to conditions: modest EGFR, extremely high HER2/neu. The protocol:
Tissue culture. MDA-MB-468 cells were a kind gift from Dr. Rina Plattner of the University of Kentucky and were maintained in medium consisting of Dulbecco's Modified Eagle Medium containing 10% serum supreme (Fisher) and antibiotics. Cells were grown at 37° C. in 5% CO2 in air. A549 and HCC827 lung cancer cells, as well as SK-Br-3 breast cancer cells were obtained from the ATCC (American Type Culture Collection) and were grown under the same conditions. The H1650 lung cancer cell line was a kind gift from Dr. Heinz Kohler of the University of Kentucky. The Pgrmc1 ligand AG-205 was purchased from Timtec, Inc. The EGFR inhibitor AG1478 was from Biomol, Inc. and was used at a concentration range of 0.8-40 μM.

A further experiment relates to EGFR. Briefly: Western blot of EGFR levels in A549 cells. The experiment is classed as cell-based, human. The protocol:
as §2, §1

Experiment [3] relates to cancer cell lines from lung, breast, colon and prostate tissues. Briefly: Toxicity to multiple cancer cell lines. The experiment is classed as cell-based. As to conditions: most active when serum is absent.
The next experiment has as its target T2, AtMAPR2 (Arabidopsis thaliana, UniProt Q9SK39).
T2 sequence (Q9SK39 1-100): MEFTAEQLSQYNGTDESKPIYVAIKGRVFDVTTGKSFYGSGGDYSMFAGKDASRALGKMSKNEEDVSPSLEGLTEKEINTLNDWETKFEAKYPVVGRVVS
As to conditions: in silico screen then binding assay, 2005; cited from earlier work.

Experiment [4] has as its system Met receptor tyrosine kinase. Briefly: Western blot of Met in A549 cells. The experiment is classed as cell-based, human. On the procedure: as §3
A further experiment relates to H358. Briefly: AG-205 viability assay in H358 cells. In kind it is cell-based. The settings on record: H358, lung, serum-starved, EGFR wild-type. On the procedure: Proliferation, anchorage-independent growth and migration assays. For growth curves, cells were plated in 24 well dishes and grown in 10% serum-containing medium. At various times, the cells were harvested with trypsin and fixed with formaldehyde added to a final concentration of 3.7%. Following the harvest of the final time point, the cells from each time point were counted using a Bright-line hemocytometer (Hausser Scientific).
MTT viability assays were performed as described previously. Briefly, cells were plated in 96-well tissue culture dishes and grown in various media with different drug doses. The cells were then incubated with 0.5 mg/ml of 3-[4,5-dimethylthiazol-2-y]-2,5-diphenyltetrazolium bromide for 1.5 hours, at which time the media was removed, the precipitated crystals were dissolved in dimethyl sulfoxide, and the absorbance at 590 nm was measured using a Bio-Tek μQuant spectrophotometer.

The subject of another experiment is focal adhesion kinase. Description: Western blot of focal adhesion kinase in A549 cells. In kind it is cell-based, human. The protocol:
as §3

SMILES strings stand for the structures.

T1 sequence (O00264 whole entry): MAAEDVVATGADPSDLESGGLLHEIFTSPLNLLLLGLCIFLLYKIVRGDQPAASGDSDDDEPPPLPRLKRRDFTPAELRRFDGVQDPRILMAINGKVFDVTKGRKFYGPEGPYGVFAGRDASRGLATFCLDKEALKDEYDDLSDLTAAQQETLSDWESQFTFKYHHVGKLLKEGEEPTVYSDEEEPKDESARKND

Take `Cc1ccc2c(c1)[C@H]1CN(C)CC[C@H]1N2C(=O)CSc1nnnn1-c1ccc(Cl)cc1` [AG-205]: the growth inhibition entry with NIH-3T3 cells is recorded as “inhibited”. Further, on Pgrmc1 [1], the Pgrmc1 expression result is listed as “increases Pgrmc1 expression”. The ku70 levels result in the experiment with ku70 is “unaffected”. For the same compound, the “increase in Pgrmc1 levels” value on Pgrmc1 [2] (12 μM dose) worked out at 4.8 fold. For the same compound, the Pgrmc1 levels result at Pgrmc1 [2] (doses of 25 and 50 μM) is “nearly undetectable levels”. Besides, the “sensitivity to growth inhibition” value in the experiment on SK-Br-3 cells is recorded as “relatively insensitive”. Besides, the “dose with optimal EGFR de-stabilizing activity” value in the experiment with EGFR was 20 to 50 µM. Further, in the experiment on EGFR (increasing doses), the EGFR stability entry is “de-stabilized EGFR in a dose-dependent manner”. In addition, in experiment [3], the “toxicity to cancer cell lines” value is “toxic to multiple cancer cell lines”. In addition, at AtMAPR2, the “binding to At Pgrmc1 (AtMAPR2)” value is reported as “bind to At Pgrmc1”. Also, the “stability of Met receptor tyrosine kinase” value in experiment [4] is “little effect”. Moreover, the IC50 in the experiment on H358 amounted to 12 µM. Also, the “stability of focal adhesion kinase” value in the experiment on focal adhesion kinase was “little effect”.
